# Assay results published in the supplement of paper PMC11208160.
# Assay: recombinant UMI read abundance after kanamycin selection (control-corrected) (log10(CPM+1)); higher = more efficient recombination; extreme values may be limits of the assay; sequences stand for … in AGTGCAGAGAAAATCGGCCAGTTTTCTCTGCCTGCAGTCCGCATGCCGTGGGACCCCTTGGGTTCTAACCTGTTGCCTAGATTTATGCAGCGGACTGCCTTTCTCCCAAAGTGATAAACCGG…AGGTTGGTTTCACT; site = the 11-nt donor
# Method in brief: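 Values are reported as log10(CPM+1), obtained by converting sequencing counts to CPM, averaging replicates and scaling by control-derived factors. The counts came from recombinant UMIs amplified by PCR across the donor–target junction. These UMIs came from a pooled Escherichia coli screen of donor and donor-binding-loop pairs for the IS621 bridge recombinase, plated with IPTG (0.07 mM) plus kanamycin or left unselected, in two replicates each.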
# 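Further: IS621 bridge recombinase in Escherichia coli cells against a fixed T5 target plasmid.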
row,Sequence,recombinant UMI read abundance (log10)
1,GGAGTGGCATGGACCGGTTTTCCCGGTAATCCGTATTTGCT (site GGAGTGGCTAC),0.163
2,GGAGTGGCATGGACCGGTTTTCCCGGTAATCCGTATTTGCT (site GGAGTGGCTAG),2.36
3,GGAGTGGCATGGACCGGTTTTCCCGGTAATCCGTATTTGCT (site GGAGTGGCTAT),0.809
4,GGAGTGGCATGGACCGGTTTTCCCGGTAATCCGTATTTGGC (site GGAGTGGCTAC),0.502
5,GGAGTGGCATGGACCGGTTTTCCCGGTAATCCGTATTTGGC (site GGAGTGGCTCC),0.101
6,GGAGTGGCATGGACCGGTTTTCCCGGTAATCCGTATTTGGC (site GGAGTGGCTGC),2
7,GGAGTGGCATGGACCGGTTTTCCCGGTAATCCGTATTTGGC (site GGAGTGGCTTC),0.328
8,GGAGTGGCATGGACCGGTTTTCCCGGTAATCCGTATTTGGT (site AGAGTGGCTAC),0.902
9,GGAGTGGCATGGACCGGTTTTCCCGGTAATCCGTATTTGGT (site CGAGTGGCTAC),0.437
10,GGAGTGGCATGGACCGGTTTTCCCGGTAATCCGTATTTGGT (site GAAGTGGCTAC),0.126
11,GGAGTGGCATGGACCGGTTTTCCCGGTAATCCGTATTTGGT (site GCAGTGGCTAC),0.497
12,GGAGTGGCATGGACCGGTTTTCCCGGTAATCCGTATTTGGT (site GGAATGGCTAC),0.749
13,GGAGTGGCATGGACCGGTTTTCCCGGTAATCCGTATTTGGT (site GGACTGGCTAC),0.0487
14,GGAGTGGCATGGACCGGTTTTCCCGGTAATCCGTATTTGGT (site GGAGAGGCTAC),0.524
15,GGAGTGGCATGGACCGGTTTTCCCGGTAATCCGTATTTGGT (site GGAGCGGCTAC),0.00445
16,GGAGTGGCATGGACCGGTTTTCCCGGTAATCCGTATTTGGT (site GGAGGGGCTAC),0.461
17,GGAGTGGCATGGACCGGTTTTCCCGGTAATCCGTATTTGGT (site GGAGTAGCTAC),0.606
18,GGAGTGGCATGGACCGGTTTTCCCGGTAATCCGTATTTGGT (site GGAGTCGCTAC),0.014
19,GGAGTGGCATGGACCGGTTTTCCCGGTAATCCGTATTTGGT (site GGAGTGACTAC),0.976

row,Sequence,recombinant UMI read abundance (log10)
1,GGAGTGGCATGGACCGGTTTTCCCGGTAATCCGTATTTGGT (site GGAGTGCCTAC),0.377
2,GGAGTGGCATGGACCGGTTTTCCCGGTAATCCGTATTTGGT (site GGAGTGGCTAA),0.0703
3,GGAGTGGCATGGACCGGTTTTCCCGGTAATCCGTATTTGGT (site GGAGTGGCTAC),0.575
4,GGAGTGGCATGGACCGGTTTTCCCGGTAATCCGTATTTGGT (site GGAGTGGCTAG),1.26
5,GGAGTGGCATGGACCGGTTTTCCCGGTAATCCGTATTTGGT (site GGAGTGGCTAT),0.592
6,GGAGTGGCATGGACCGGTTTTCCCGGTAATCCGTATTTGGT (site GGAGTGGCTCC),0.0114
7,GGAGTGGCATGGACCGGTTTTCCCGGTAATCCGTATTTGGT (site GGAGTGGCTGC),0.537
8,GGAGTGGCATGGACCGGTTTTCCCGGTAATCCGTATTTGGT (site GGAGTGGCTTC),0.0104
9,GGAGTGGCATGGACCGGTTTTCCCGGTAATCCGTATTTGGT (site GGAGTGTCTAC),1.1
10,GGAGTGGCATGGACCGGTTTTCCCGGTAATCCGTATTTGGT (site GGAGTTGCTAC),0
11,GGAGTGGCATGGACCGGTTTTCCCGGTAATCCGTATTTGGT (site GGATTGGCTAC),0.458
12,GGAGTGGCATGGACCGGTTTTCCCGGTAATCCGTATTTGGT (site GGCGTGGCTAC),0.0051
13,GGAGTGGCATGGACCGGTTTTCCCGGTAATCCGTATTTGGT (site GGGGTGGCTAC),0.0193
14,GGAGTGGCATGGACCGGTTTTCCCGGTAATCCGTATTTGGT (site GGTGTGGCTAC),0.564
15,GGAGTGGCATGGACCGGTTTTCCCGGTAATCCGTATTTGGT (site GTAGTGGCTAC),0.294
16,GGAGTGGCATGGACCGGTTTTCCCGGTAATCCGTATTTGGT (site TGAGTGGCTAC),0.32
17,GGATCATCATGGACCGGTTTTCCCGGTAATCCGTATTTGAT (site CGATCATCTAG),0
18,GGATCATCATGGACCGGTTTTCCCGGTAATCCGTATTTGAT (site GGATCATCTAT),0.00412
19,GGATCATCATGGACCGGTTTTCCCGGTAATCCGTATTTGCT (site AGATCATCTAG),0

row,Sequence,recombinant UMI read abundance (log10)
1,GGATCATCATGGACCGGTTTTCCCGGTAATCCGTATTTGCT (site CGATCATCTAG),0.511
2,GGATCATCATGGACCGGTTTTCCCGGTAATCCGTATTTGCT (site GGATCATCTAG),1.59
3,GGATCATCATGGACCGGTTTTCCCGGTAATCCGTATTTGCT (site TGATCATCTAG),0.91
4,GGATCCCCATGGACCGGTTTTCCCGGTAATCCGTATTTGCT (site GGATCCCCTAG),0.0066
5,GGATCGACATGGACCGGTTTTCCCGGTAATCCGTATTTGTT (site AGATCGACTAA),0.0171
6,GGATCGACATGGACCGGTTTTCCCGGTAATCCGTATTTGTT (site CGATCGACTAA),0.00751
7,GGATCGACATGGACCGGTTTTCCCGGTAATCCGTATTTGTT (site GGATCGACTAA),0.7
8,GGATCGACATGGACCGGTTTTCCCGGTAATCCGTATTTGTT (site TGATCGACTAA),0.00972
9,GGATCGGCATGGACCGGTTTTCCCGGTAATCCGTATTTGAC (site GGATCGGCTGT),1.87
10,GGATGATCATGGACCGGTTTTCCCGGTAATCCGTATTTGCT (site CGATCATCTAG),0
11,GGATGATCATGGACCGGTTTTCCCGGTAATCCGTATTTGCT (site GGATGATCTAG),2.36
12,GGATTATCATGGACCGGTTTTCCCGGTAATCCGTATTTGAT (site GGATTATCTAT),1.82
13,GGATTGACATGGACCGGTTTTCCCGGTAATCCGTATTTGCC (site GGATAGACTGG),1.42
14,GGATTGACATGGACCGGTTTTCCCGGTAATCCGTATTTGCC (site GGATCGACTGG),1.06
15,GGATTGACATGGACCGGTTTTCCCGGTAATCCGTATTTGCC (site GGATGGACTGG),0
16,GGATTGACATGGACCGGTTTTCCCGGTAATCCGTATTTGCC (site GGATTGACTGG),1.98
17,GGCAAACCATGGACCGGTTTTCCCGGTAATCCGTATTTGAA (site GGCAAACCTTT),0
18,GGCAAACCATGGACCGGTTTTCCCGGTAATCCGTATTTGAA (site GGCAACCCTTT),0
19,GGCAAACCATGGACCGGTTTTCCCGGTAATCCGTATTTGAA (site GGCAAGCCTTT),0.00636
